One assay has as its target B-Raf V600E (Homo sapiens (Human), UniProt P15056, V600E). The assay is described as follows: B-Raf V600E kinase activity biochemical assay (AlphaScreen, biotin-MEK1 substrate). The note with it: 100 μM ATP. The procedure:
Assays for biochemical and cell based activity are known in the art, for example, as described in PCT publication WO 2007/002433, the disclosure of which is hereby incorporated by reference as it relates to such assays. For example, the biochemical activity IC50 values are determined with respect to inhibition of B-Raf V600E kinase activity or p-Erk kinase activity, where inhibition of phosphorylation of a peptide substrate is measured as a function of compound concentration. Compounds to be tested are diluted in dimethyl sulfoxide to a concentration of 0.1 mM. These are serially diluted 15 μL into 30 μL of dimethyl sulfoxide seven times in 96 well plates for a total of 8 dilution points, and for each dilution point 1 μL is added to a well of an assay plate. Plates are prepared such that each well in a 384 well plate contains 1 μL of compound in 10 μL volume with 0.1 ng Raf enzyme (i.e. any of B-Raf, c-Raf-1 or B-Raf V600E, Upstate Biotechnology or preparead by methods known to one of skill in the art), 50 mM HEPES, pH 7.0, 50 mM NaCl, 2 mM MgCl2, 1 mM MnCl2, 0.01% Tween-20, 1 mM DTT, and 100 nM biotin-MEK1 as substrate. The reaction is started with addition of 10 μL of 200 μM ATP (i.e. final 100 μM ATP). […] The plates are incubated for 3 hours at room temperature and read on Envision reader (Perkin Elmer). […]
(Alpha assays give light when donor and acceptor beads are brought close together.)

Assay [1] deals with A375 melanoma cells (B-Raf V600E mutation). Nature of the assay: A375 (A375_P-ERK) cell activity / cell growth inhibition assay. The format is cell-based, human. The note with it: Homo sapiens, A-375; A375 cells (text: A375_P-ERK).

In general, IC50 refers to the concentration that gives 50% inhibition.

Molecules are shown by their SMILES.

Chain of B-Raf V600E (P15056 whole entry V600E): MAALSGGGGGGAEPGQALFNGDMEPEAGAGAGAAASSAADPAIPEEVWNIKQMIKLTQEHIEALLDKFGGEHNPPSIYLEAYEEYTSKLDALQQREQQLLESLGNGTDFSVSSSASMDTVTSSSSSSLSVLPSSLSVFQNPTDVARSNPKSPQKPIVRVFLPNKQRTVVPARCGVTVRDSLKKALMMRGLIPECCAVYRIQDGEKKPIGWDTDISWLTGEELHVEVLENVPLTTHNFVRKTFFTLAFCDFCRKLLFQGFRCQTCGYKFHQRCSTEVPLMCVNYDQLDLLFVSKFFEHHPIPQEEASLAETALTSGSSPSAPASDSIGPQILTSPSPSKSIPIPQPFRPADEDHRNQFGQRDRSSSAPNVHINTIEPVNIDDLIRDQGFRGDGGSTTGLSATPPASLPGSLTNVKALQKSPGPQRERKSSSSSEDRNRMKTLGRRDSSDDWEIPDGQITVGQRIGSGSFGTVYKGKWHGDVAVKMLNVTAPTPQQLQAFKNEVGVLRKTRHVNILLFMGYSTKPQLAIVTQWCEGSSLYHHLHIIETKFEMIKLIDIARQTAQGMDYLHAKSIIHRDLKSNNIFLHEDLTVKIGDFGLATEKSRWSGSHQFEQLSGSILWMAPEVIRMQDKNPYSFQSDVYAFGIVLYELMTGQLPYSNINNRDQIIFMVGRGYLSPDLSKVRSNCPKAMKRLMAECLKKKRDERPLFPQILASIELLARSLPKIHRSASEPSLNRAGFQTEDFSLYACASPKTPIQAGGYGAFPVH

For `CCN(C)S(=O)(=O)Nc1ccc(F)c(C(=O)c2c[nH]c3ncc(-c4ccc(Cl)cc4)cc23)c1F` [P-0013], the results for the IC50 (against B-Raf V600E; in assay [1]) were below 0.1 µM and below 1 µM, respectively.

For the origin of these results see patent publication US11337976B2 (Plexxikon Inc., priority 2011, dated 2022).
